Experimental data from patent US20070293434A9, “Binding polypeptides and methods based thereon” (priority 2000, published 2007).

Target: BLyS (Homo sapiens, UniProt Q9Y275)
Experiment: Fluorescence anisotropy determination of BLyS-ligand dissociation constants
Format: binding
Description: Dissociation constants between the synthetic peptides and BLyS (free in solution) were measured by fluorescence anisotropy (FA). In these experiments, the concentration of the fluorescein-labeled peptide is held constant and the BLyS protein concentration was varied. […] Binding reactions containing 50 nM fluorescein-labeled peptide and a varied concentration of BLyS in a volume between 10 and 20 μL per well were performed in 384 well microplates. Reactions were assayed using a Tecan Polarion fluorescence polarization plate reader. Cross-competition studies between peptides were performed using 50 nM fluorescein-labeled peptide and 1-2 μM BLyS in the presence and absence of 100 μM unlabeled peptide. […] Other buffers in which dissociation constants of BLyS Binding polypeptides were […] include: […] […] The KD of several BLyS binding BAML peptides was determined by fluorescence anisotropy, performed as previously described.

Sequence of BLyS (Q9Y275 134-285 limits assumed): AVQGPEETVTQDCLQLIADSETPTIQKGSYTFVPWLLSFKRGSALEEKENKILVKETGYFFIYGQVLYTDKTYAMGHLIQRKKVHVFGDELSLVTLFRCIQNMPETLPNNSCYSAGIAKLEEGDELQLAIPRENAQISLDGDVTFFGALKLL

| Substance | decrease in affinity compared to DX814 (compared to DX814) | improvement in binding affinity for BLyS as compared to 453-01-B07 (compared to 453-01-B07 (SEQ ID NO:31)) |
| --- | --- | --- |
| Ac-ANWYDPLTKLSLPDGGK-fitc [DX818] | approximately 10 fold | – |
| Ac-ANWYDSLTKLWLPDGGK-fitc [DX822] | – | more than 10 fold |
